ChEMBL document CHEMBL3856210, “Discovery of in vitro antitubercular agents through in silico ligand-based approaches” (Eur J Med Chem, 2016)
Values after ≈ are worked out from the molar mass of the structure shown.

Experiment: Antitubercular activity against Mycobacterium tuberculosis H37Ra ATCC 25177 after 21 days by agar dilution method
Format: functional
Conditions: ATCC 25177, 504 h
Work on `COCc1nn2c(=O)cc(CCc3c(C)n[nH]c3C)[nH]c2c1-c1ccc(Cl)cc1` yielded an MIC of 16 µg/mL (≈ 38.8 µM). `CCCc1cc(=O)n2nc(C)c(-c3ccc(OC)c(OC)c3)c2[nH]1` showed an MIC of 64 µg/mL (≈ 195 µM). Compound `Cc1nn2c(=O)cc(Cc3ccsc3)[nH]c2c1-c1ccc(Cl)cc1` has an MIC of 32 µg/mL (≈ 89.9 µM). In the case of `Cc1cccc(-c2nn3c(=O)cc(CCc4c(C)n[nH]c4C)[nH]c3c2C)c1`, the MIC is reported as 64 µg/mL (≈ 177 µM). `Cc1n[nH]c(C)c1CCc1cc(=O)n2nc(C)c(-c3ccc(Cl)cc3)c2[nH]1` showed an MIC of 8 µg/mL (≈ 20.9 µM). `Cc1c(-c2cccc(Cl)c2)nn2c(=O)cc(CCCN3CCOCC3)[nH]c12` showed an MIC of 32 µg/mL (≈ 82.7 µM). In the case of `COc1ccc(-c2cnn3c(=O)c4c([nH]c23)CCCC4)cc1OC`, the MIC is reported as 32 µg/mL (≈ 98.4 µM). In the case of `Fc1ccc([C@H](c2cn(Cc3ccccc3)nn2)n2ccnc2)cc1`, the MIC is reported as 64 µg/mL (≈ 192 µM). Work on `Fc1ccc([C@H](c2cn(-c3ccccc3)nn2)n2ccnc2)cc1` yielded an MIC of 32 µg/mL (≈ 100 µM). In the case of `CC1=NN(c2ccc(Cl)cc2)C(=O)/C1=C(/c1ccc(Cl)cc1)N1CCOCC1`, the MIC is reported as 4 µg/mL (≈ 9.61 µM). Compound `CC1=NN(c2ccc(Cl)cc2)C(=O)/C1=C(/c1ccc(Cl)cc1)N1CCSCC1` has an MIC of 8 µg/mL (≈ 18.5 µM). In the case of `CC1=NN(c2ccc(Cl)cc2)C(=O)/C1=C(/c1ccc(Cl)cc1)N1CCC(C)CC1`, the MIC is reported as 64 µg/mL (≈ 149 µM). With `CC1=NN(c2ccccc2)C(=O)/C1=C(/c1ccc(Cl)cc1)N1CCN(C)CC1` the MIC was 8 µg/mL (≈ 20.3 µM). `CC1=NN(c2ccccc2)C(=O)/C1=C(/c1ccc(Cl)cc1)N1CCOCC1` showed an MIC of 16 µg/mL (≈ 41.9 µM). Work on `CC1=NN(c2ccc(Cl)cc2)C(=O)/C1=C(/c1ccc(Cl)cc1)N1CCN(C)CC1` yielded an MIC of 4 µg/mL (≈ 9.32 µM). Compound `CC1=NN(c2ccc(Cl)cc2)C(=O)/C1=C(/c1ccc(Cl)cc1)N1CCCCC1` has an MIC of over 64 µg/mL. Work on `CC1=NN(c2ccc(Cl)cc2)C(=O)/C1=C(/c1ccc(Cl)cc1)N(C)C` yielded an MIC of 16 µg/mL (≈ 42.7 µM). In the case of `CC1=NN(c2ccccc2)C(=O)/C1=C(/c1ccc(Cl)cc1)N1CCSCC1`, the MIC is reported as 8 µg/mL (≈ 20.1 µM). With `CC1=NN(c2ccccc2)C(=O)/C1=C(/c1ccc(Cl)cc1)N(C)C` the MIC was 32 µg/mL (≈ 94.2 µM). `O=C(COc1ccccc1)OC(Cn1ccnc1)c1ccc(Cl)cc1` (racemic) showed an MIC of 64 µg/mL (≈ 179 µM). In the case of `O=C(OC(Cn1ccnc1)c1ccc(Cl)cc1)N1CCN(c2ccc([N+](=O)[O-])cc2)CC1` (racemic), the MIC is reported as 16 µg/mL (≈ 35.1 µM). `O=C(OC(Cc1ccccc1)c1ccc(Cl)cc1)N1CCN(c2ccc(Cl)c(Cl)c2)CC1` (racemic) showed an MIC of 64 µg/mL (≈ 131 µM). `O=C(OC(Cn1ccnc1)c1ccc(Cl)cc1)N1CCN(c2ccc(Cl)c(Cl)c2)CC1` (racemic) gave an MIC of 4 µg/mL (≈ 8.34 µM). `O=C(OC(Cn1cccc1)c1ccc(Cl)cc1)N1CCN(c2ccc(Cl)c(Cl)c2)CC1` (racemic) gave an MIC of 64 µg/mL (≈ 134 µM).

Experiment: Drug level in human liver microsomes assessed as CYP450-mediated compound formation treated with (+/-)-1-(4-Chlorophenyl)-2-(1H-imidazol-1-yl)ethyl-4-(3,4-dichlorophenyl)piperazine-1-carboxylate at 50 uM after 60 mins in presence of NADPH by LC-MS analysis
Format: ADME
Conditions: not given
In the case of `O=C(OC(c1ccc(Cl)cc1)C(O)n1ccnc1)N1CCN(c2ccc(Cl)c(Cl)c2)CC1` (stereo not given), the Drug metabolism is reported as “Metabolite_Detected”.
